For data set [1] the following is noted: female rat, oral 10-30 mg/kg; ref Gannon et al. 2016; cited from earlier work.
The target of data set [2] is T1, chimp AR (Pan troglodytes, UniProt O97775).
T1 construct: expressed in transfected cells; host or cells: CV-1 cells (ATCC CCL-70), adenoviral transduction
T1 sequence (O97775 1-911): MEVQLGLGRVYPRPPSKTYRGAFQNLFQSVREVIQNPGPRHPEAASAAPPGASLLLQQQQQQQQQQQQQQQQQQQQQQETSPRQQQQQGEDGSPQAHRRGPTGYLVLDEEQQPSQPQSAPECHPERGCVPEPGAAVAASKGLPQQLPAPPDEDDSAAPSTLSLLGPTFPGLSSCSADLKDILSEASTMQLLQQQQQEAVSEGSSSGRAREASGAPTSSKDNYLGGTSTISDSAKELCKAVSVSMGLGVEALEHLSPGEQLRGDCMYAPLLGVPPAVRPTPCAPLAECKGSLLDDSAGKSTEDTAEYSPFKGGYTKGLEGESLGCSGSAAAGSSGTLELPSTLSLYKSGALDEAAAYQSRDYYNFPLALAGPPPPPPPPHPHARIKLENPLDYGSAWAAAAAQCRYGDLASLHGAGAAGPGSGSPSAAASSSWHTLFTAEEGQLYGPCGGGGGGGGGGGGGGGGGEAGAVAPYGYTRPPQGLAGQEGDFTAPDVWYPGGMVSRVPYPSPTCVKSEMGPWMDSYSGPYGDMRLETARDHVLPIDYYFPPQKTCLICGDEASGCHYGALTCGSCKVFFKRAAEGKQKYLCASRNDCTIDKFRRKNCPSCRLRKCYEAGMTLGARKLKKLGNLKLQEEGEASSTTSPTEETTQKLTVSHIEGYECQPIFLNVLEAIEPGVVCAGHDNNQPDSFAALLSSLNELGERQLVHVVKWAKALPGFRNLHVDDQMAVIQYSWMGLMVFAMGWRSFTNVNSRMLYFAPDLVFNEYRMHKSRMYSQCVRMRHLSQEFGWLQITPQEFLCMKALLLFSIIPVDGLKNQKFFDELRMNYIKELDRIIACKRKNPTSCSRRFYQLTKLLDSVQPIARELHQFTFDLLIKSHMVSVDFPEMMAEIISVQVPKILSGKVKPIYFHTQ
Kind of data set: AR transcriptional activation, CV-1 cells. The data set is classed as cell-based. On the procedure: HFPO-DA was assessed for agonism and antagonism of transcriptional activation for estrogen (ER), androgen (AR), and glucocorticoid receptors (GR). Method details for in vitro transactivation assays for ER ([Wilson et al. 2004a]), AR ([Hartig et al. 2002], [2007]), and GR ([Conley et al. 2017]; [Medlock Kakaley et al. 2018]) have been previously reported. Briefly, for ER activity we utilized the stably transfected T47D-KBluc cell line [publicly available via American Type Culture Collection (ATCC); CRL-2865] according to protocols provided by ATCC with the modification of Dulbecco’s Modified Eagle Media (DMEM) as the cell culture media instead of Roswell Park Memorial Institute (RPMI) media. […] All assays were run in 96-well plates and luminescence was detected using a BMG Fluostar Omega luminometer (BMG Labtech) following 24-h exposure. […] Cellular cytotoxicity across the dosing range was determined for CV-1 cells utilizing the 3-(4,5-dimethylthiazol-2-yl)-2,5-diphenyltetrazolium bromide (MTT) dye ([Mosmann 1983]). HFPO-DA was analyzed using n=2–3 biological replicate assay plates (i.e., unique cell passages) with four technical replicates per treatment per plate. […]

The values below come from publication PMC6768323, “Adverse Maternal, Fetal, and Postnatal Effects of Hexafluoropropylene Oxide Dimer Acid (GenX) from Oral Gestational Exposure in Sprague-Dawley Rats” (Environmental Health Perspectives, 2019).

A word on the half-life: it is how long it takes for the measured level to halve.

Turning to `O=C(O)C(F)(OC(F)(F)C(F)(F)C(F)(F)F)C(F)(F)F` (stereo not drawn) [HFPO-DA, Hexafluoropropylene oxide dimer acid], the half-life in data set [1] is approximately 5 h. Also, the androgen receptor agonism entry in data set [2] (100 pM to 100 μM) was “no androgen or glucocorticoid receptor agonism”. Also, the “androgen receptor antagonism, reduction in luciferase expression” value in data set [2] (100 μM, versus 100 pM DHT) turned out to be 42±1%.
